# Assay results: patent publication US20110262456A1, “METHOD OF TREATING ISCHEMIA REPERFUSION INJURY” (priority 2008, published 2011)
# Read-outs that look alike come from different tables or passages of the source.
# Legend:
# rabbit heart = conditions: application after the onset of cardiac ischemia, rabbit infarct model; cited from earlier work
# [1] = test system: HL-60 human promyelocytic leukemia cells; conditions: cited from earlier work
# rabbit hearts = assay: Rabbit heart regional ischemia/reperfusion, infarct size as percentage of risk zone; type: in vivo, New Zealand White rabbits; conditions: ischemia alone, FIG. 9
# Protocol: New Zealand White rabbits of either sex weighing nearly 3 Kg were anesthetized with intravenous sodium pentobarbital (30 mg/kg). Throughout the experiment, additional anesthesia was administered as needed (5-15 mg pentobarbital/15 min) A heating pad maintained rectal temperature between 38.5 and 39.5-C. Animals were intubated through a tracheotomy and ventilated with 100% O2 with the aid of a mechanical ventilator. To administer drugs, a PE 50 catheter filled with heparinized saline was placed in an ear vein. After a left thoractomy, a prominent branch of the left coronary artery was surrounded with a suture (2-0 silk) to form a snare. The rabbits were allowed to stabilize for 15 min after surgery before the protocols were begun. […] The coronary artery was re-occluded, and […] diameter green fluorescent microspheres (Duke Scientific Corp., Palo Alto, Calif.) were infused into the perfusate to demarcate the ischemic zone as the area of tissue without fluorescence (region at risk). […] The areas of infarct and risk zone were determined by planimetry of each slice and volumes were calculated by multiplying each area by its slice thickness and summing them for each heart. Infarct size is expressed as a percentage of the risk zone. […] All data are expressed as mean TS.E.M. One-way analysis of variance (ANOVA) combined with Tukey's posthoc test was performed on baseline hemodynamic and infarct data. […]
compound,measurement,setting,value
N#Cc1c(N)nc(SCC(N)=O)c(C#N)c1-c1ccc(OCC2CC2)cc1 [BAY-60-6583],reduction of the infarct size,rabbit heart,effective
CNC(=O)[C@H]1O[C@@H](n2cnc3c(NCc4cccc(I)c4)nc(Cl)nc32)[C@H](O)[C@@H]1O [C1-IB-MECA],"apoptosis in HL-60 cells, low concentrations",[1]; 10 nM or 1 μM,protected against
same,apoptosis in HL-60 cells,[1]; 10-30 μM,induced apoptosis
CNC(=O)[C@H]1O[C@@H](n2cnc3c(NCc4cccc(I)c4)ncnc32)[C@H](O)[C@@H]1O [IB-MECA],apoptosis in HL-60 cells,[1]; 30 and 60 μM,induced apoptosis
"CCNC(=O)[C@H]1O[C@@H](n2cnc3c(N)ncnc32)[C@H](O)[C@@H]1O [NECA, 5′-N-ethylcarboxamidoadenosine]",protection (inhibition of infarct size),rabbit hearts,50%
